Experimental data published in US20240174618A1, “SUBSTITUTED (2-HETEROARYLOXYPHENYL)SULFONATES, SALTS THEREOF AND THEIR USE AS HERBICIDAL AGENTS” (Bayer Aktiengesellschaft, priority 2021, published 2024).

Key:
Format in all cases: in vivo
[1] = test system: Veronica persica (VERPE); assay: B. Herbicidal post-emergence efficacy, VERPE
Procedure, shortened: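 Post-emergence greenhouse test: one-leaf-stage plants, compound (WP/EC, +0.5% additive, 600 L/ha water, ≤1280 g/ha) applied to green parts; % efficacy scored visually vs untreated after ~3 wk; 100% = plants died.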

[2] = test system: Stellaria media (STEME); assay: A. Herbicidal pre-emergence efficacy, STEME
Procedure, shortened: (§1)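 Pre-emergence soil-surface spray in sandy loam pots, WP/EC in water plus 0.5% additive, 600 L/ha. Visual % damage rating after about 3 weeks in greenhouse vs. untreated; 0% = control-like, 100% = dead plants. Rates up to 1280 g/ha.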

[3] = test system: Veronica persica (VERPE); assay: A. Herbicidal pre-emergence efficacy, VERPE; conditions: for Pre-emergence efficacy against VERPE: dosage 80 g/ha
Procedure, shortened: as §1

[4] = test system: Setaria viridis (SETVI); assay: C. Herbicidal pre-emergence efficacy, SETVI; conditions: scored after about 3 weeks
Procedure, shortened: (§2)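 Pre-emergence test: formulated compounds sprayed as aqueous suspension or emulsion with 0.5% additive at 600 l/ha onto soil covering sown seeds, at rates corresponding to 320 g/ha or less. After about 3 weeks in greenhouse, efficacy scored visually as percent versus untreated controls (100% = plants dead).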

[5] = test system: Viola tricolor (VIOTR); assay: C. Herbicidal pre-emergence efficacy, VIOTR
Procedure, shortened: as §2

[6] = test system: Poa annua (POAAN); assay: A. Herbicidal pre-emergence efficacy, POAAN
Procedure, shortened: as §1

[7] = test system: Veronica persica (VERPE); assay: C. Herbicidal pre-emergence efficacy, VERPE; conditions: scored after about 3 weeks
Procedure, shortened: as §2

[8] = test system: Abutilon theophrasti (ABUTH); assay: C. Herbicidal pre-emergence efficacy, ABUTH; conditions: scored after about 3 weeks
Procedure, shortened: as §2

Row | SMILES | Post-emergence efficacy against VERPE ([1]; 80 g/ha) | Post-emergence efficacy against VERPE ([1]; 320 g/ha) | Post-emergence efficacy against VERPE ([1]; 1280 g/ha) | Pre-emergence efficacy against STEME ([2]; dosage 320 g/ha) | Pre-emergence efficacy against STEME ([2]; dosage 1280 g/ha) | Pre-emergence efficacy against VERPE in % ([3]; 320 g/ha) | Pre-emergence efficacy against VERPE in % ([3]; 1280 g/ha) | Pre-emergence efficacy against VERPE [3] | Pre-emergence efficacy against SETVI ([4]; 80 g/ha) | Pre-emergence efficacy against SETVI ([4]; 320 g/ha) | Pre-emergence efficacy against VIOTR in % ([5]; application rate 80 g/ha) | Pre-emergence efficacy against VIOTR in % ([5]; application rate 320 g/ha) | Pre-emergence efficacy against POAAN ([6]; dosage 320 g/ha) | Pre-emergence efficacy against POAAN ([6]; dosage 1280 g/ha) | Pre-emergence efficacy against VERPE ([7]; 80 g/ha) | Pre-emergence efficacy against VERPE ([7]; 320 g/ha) | Pre-emergence efficacy against ABUTH ([8]; 80 g/ha) | Pre-emergence efficacy against ABUTH ([8]; 320 g/ha) | Pre-emergence efficacy against STEME ([2]; dosage 80 g/ha) | Pre-emergence efficacy against POAAN ([6]; dosage 80 g/ha)
1 | O=S(=O)(CCC(F)(F)F)Oc1c(Cl)cccc1Oc1ncc(Br)cn1 [Example I-32] | 100% | 100% | 100% | 90% | 90% | 90% | 100% | 90% | 90% | 100% | 100% | 100% | 90% | 90% | 80% | 100% | 90% | 100% | – | –
2 | O=S(=O)(CCCC(F)(F)F)Oc1c(Cl)cccc1Oc1ncc(Br)cn1 [Example I-34] | 100% | 100% | 100% | 90% | 90% | 90% | 100% | – | 80% | 100% | 100% | 100% | 90% | 90% | 80% | 100% | 80% | 90% | – | –
3 | O=S(=O)(CCC(F)(F)F)Oc1c(Cl)cccc1Oc1ncc(Cl)cn1 [Example I-38] | 90% | 90% | 90% | 100% | 100% | 90% | 100% | 90% | 100% | 100% | 100% | 100% | 100% | 100% | 100% | 100% | 100% | 100% | 100% | –
4 | O=S(=O)(CCCC(F)(F)F)Oc1c(Cl)cccc1Oc1ncc(Cl)cn1 [Example I-39] | 90% | 90% | 90% | 100% | 100% | 100% | 100% | 90% | 100% | 100% | 100% | 100% | 100% | 100% | 100% | 100% | 100% | 100% | – | –
5 | O=S(=O)(CCC(F)(F)F)Oc1c(F)cccc1Oc1ncc(Br)cn1 [Example I-40] | 90% | 90% | 90% | 100% | 100% | 100% | 100% | 100% | 100% | 100% | 100% | 100% | 100% | 100% | 100% | 100% | 100% | 100% | – | 100%
